# Measurements as given in PMC9736855, “Discovery of 3-Amino-1H-pyrazole-Based Kinase Inhibitors to Illuminate the Understudied PCTAIRE Family” (International Journal of Molecular Sciences, 2022).
# Key:
# Assay in all cases: DSF
# Format in all cases: binding
# STK6 = target: T1, STK6 (Homo sapiens, UniProt O14965)
# T1 construct: purchased in-house DSF panel (SGC Frankfurt)
# T1 sequence (O14965 122-403): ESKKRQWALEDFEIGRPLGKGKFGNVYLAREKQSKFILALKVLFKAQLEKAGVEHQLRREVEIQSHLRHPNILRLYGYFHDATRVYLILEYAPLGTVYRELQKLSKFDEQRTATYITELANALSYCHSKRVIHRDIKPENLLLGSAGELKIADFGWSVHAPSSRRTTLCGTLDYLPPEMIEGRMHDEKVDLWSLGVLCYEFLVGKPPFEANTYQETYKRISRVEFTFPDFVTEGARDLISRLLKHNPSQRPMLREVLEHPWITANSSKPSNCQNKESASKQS
# Experimental: (§3) Recombinant protein kinase domains with a concentration of 2 μM were mixed with a 10 μM compound solution in DMSO, 20 mM HEPES, pH 7.5, and 500 mM NaCl. SYPRO Orange (5000×, Invitrogen) was added as a fluorescence probe (1 µl per mL). Subsequently, temperature-dependent protein unfolding profiles were measured, using the QuantStudio™ 5 realtime PCR machine (Thermo Fisher, Waltham, MA, USA). […] The temperature was raised with a step rate of 3 °C per minute. Data points were analyzed with the internal software (Thermal Shift SoftwareTM Version 1.4, Thermo Fisher) using the Boltzmann equation to determine the inflection point of the transition curve [56]. Differences in melting temperature are given as ΔTm values in °C. Measurements were performed in duplicates.
# RPS6KA1 = test system: RPS6KA1;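 note: compound tested at 10 µM with 2 µM protein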
# Experimental: as §3
# UKL3 = target: T2, UKL3 (Homo sapiens, UniProt Q6PHR2);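 note: compound tested at 10 µM with 2 µM protein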
# T2 construct: purchased in-house DSF panel (SGC Frankfurt)
# T2 sequence (Q6PHR2 1-279): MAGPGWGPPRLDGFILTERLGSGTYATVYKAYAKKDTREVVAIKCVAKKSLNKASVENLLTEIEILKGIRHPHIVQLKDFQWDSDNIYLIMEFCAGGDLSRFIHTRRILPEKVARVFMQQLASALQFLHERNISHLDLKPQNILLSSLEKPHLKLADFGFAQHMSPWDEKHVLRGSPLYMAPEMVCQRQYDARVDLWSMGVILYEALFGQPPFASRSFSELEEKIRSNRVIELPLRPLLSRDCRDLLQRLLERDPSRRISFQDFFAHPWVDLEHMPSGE
# Experimental: as §3
# VRK1 = target: T3, VRK1 (Homo sapiens, UniProt Q99986)
# T3 construct: purchased in-house DSF panel (SGC Frankfurt)
# T3 sequence (Q99986 1-396): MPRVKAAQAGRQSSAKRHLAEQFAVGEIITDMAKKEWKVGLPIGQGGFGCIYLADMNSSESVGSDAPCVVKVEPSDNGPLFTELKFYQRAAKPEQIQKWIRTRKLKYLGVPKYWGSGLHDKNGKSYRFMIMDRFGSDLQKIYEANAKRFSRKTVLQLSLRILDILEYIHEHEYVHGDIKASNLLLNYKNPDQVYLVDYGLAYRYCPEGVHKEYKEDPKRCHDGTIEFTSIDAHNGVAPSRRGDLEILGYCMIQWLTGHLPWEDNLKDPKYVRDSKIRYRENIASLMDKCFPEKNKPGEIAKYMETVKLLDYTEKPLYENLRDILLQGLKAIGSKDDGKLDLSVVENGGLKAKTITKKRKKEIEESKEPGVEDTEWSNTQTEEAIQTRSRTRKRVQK
# Experimental: (§1) Recombinant protein kinase domains with a concentration of 2 μM were mixed with a 10 μM compound solution in DMSO, 20 mM HEPES, pH 7.5, and 500 mM NaCl. SYPRO Orange (5000×, Invitrogen) was added as a fluorescence probe (1 µl per mL). Subsequently, temperature-dependent protein unfolding profiles were measured, using the QuantStudio™ 5 realtime PCR machine (Thermo Fisher, Waltham, MA, USA). […] The temperature was raised with a step rate of 3 °C per minute. Data points were analyzed with the internal software (Thermal Shift SoftwareTM Version 1.4, Thermo Fisher) using the Boltzmann equation to determine the inflection point of the transition curve. Differences in melting temperature are given as ΔTm values in °C. Measurements were performed in duplicates.
# PKMYT1 = target: T4, PKMYT1 (Homo sapiens, UniProt Q99640)
# T4 construct: purchased in-house DSF panel (SGC Frankfurt)
# T4 sequence (Q99640 75-362): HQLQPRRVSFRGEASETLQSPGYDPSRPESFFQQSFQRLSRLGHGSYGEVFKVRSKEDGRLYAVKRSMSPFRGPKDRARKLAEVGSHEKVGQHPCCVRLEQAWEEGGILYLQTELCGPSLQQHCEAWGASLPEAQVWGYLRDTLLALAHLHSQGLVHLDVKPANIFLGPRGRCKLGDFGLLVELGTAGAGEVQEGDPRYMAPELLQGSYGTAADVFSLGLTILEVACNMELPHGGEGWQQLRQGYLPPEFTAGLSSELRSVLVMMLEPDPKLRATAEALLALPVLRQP
# Experimental: as §1
# STK17A = target: T5, STK17A (Homo sapiens, UniProt Q9UEE5)
# T5 construct: purchased in-house DSF panel (SGC Frankfurt)
# T5 sequence (Q9UEE5 61-321): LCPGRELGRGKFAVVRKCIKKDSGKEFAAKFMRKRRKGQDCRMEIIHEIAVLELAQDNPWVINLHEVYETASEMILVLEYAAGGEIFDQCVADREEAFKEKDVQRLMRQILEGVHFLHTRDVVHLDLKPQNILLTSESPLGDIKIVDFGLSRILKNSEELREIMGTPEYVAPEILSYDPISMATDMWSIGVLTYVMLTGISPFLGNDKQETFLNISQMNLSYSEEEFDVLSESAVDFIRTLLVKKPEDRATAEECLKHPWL
# Experimental: as §3
# CDK16 = target: T6, CDK16 (Homo sapiens, UniProt Q00536); conditions: 10 μM compound
# T6 construct: purchased in-house DSF panel (SGC Frankfurt)
# T6 sequence (Q00536 163-478): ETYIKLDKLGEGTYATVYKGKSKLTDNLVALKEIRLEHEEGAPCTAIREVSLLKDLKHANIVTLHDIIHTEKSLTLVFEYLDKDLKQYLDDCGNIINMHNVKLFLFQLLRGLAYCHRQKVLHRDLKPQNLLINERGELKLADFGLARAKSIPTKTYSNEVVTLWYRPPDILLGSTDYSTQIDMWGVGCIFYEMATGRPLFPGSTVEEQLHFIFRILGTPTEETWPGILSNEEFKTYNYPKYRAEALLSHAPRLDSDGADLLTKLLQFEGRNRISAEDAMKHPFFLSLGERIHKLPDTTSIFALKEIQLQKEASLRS
# Procedure, shortened: (§2)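 Differential scanning fluorimetry follows unfolding of the protein through fluorescence of a dye that depends on folding state. The value is ΔTm, the melting-temperature shift between compound-free and compound-bound protein. Duplicate measurements.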
# CDK2 = target: T7, CDK2 (Homo sapiens, UniProt P24941); conditions: 10 μM compound
# T7 construct: purchased in-house DSF panel (SGC Frankfurt)
# Procedure, shortened: as §2
# TAF1 = test system: TAF1;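 note: compound tested at 10 µM with 2 µM protein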
# Experimental: as §3
# NEK1 = target: T8, NEK1 (Homo sapiens, UniProt Q96PY6)
# T8 construct: purchased in-house DSF panel (SGC Frankfurt)
# T8 sequence (Q96PY6 1-328): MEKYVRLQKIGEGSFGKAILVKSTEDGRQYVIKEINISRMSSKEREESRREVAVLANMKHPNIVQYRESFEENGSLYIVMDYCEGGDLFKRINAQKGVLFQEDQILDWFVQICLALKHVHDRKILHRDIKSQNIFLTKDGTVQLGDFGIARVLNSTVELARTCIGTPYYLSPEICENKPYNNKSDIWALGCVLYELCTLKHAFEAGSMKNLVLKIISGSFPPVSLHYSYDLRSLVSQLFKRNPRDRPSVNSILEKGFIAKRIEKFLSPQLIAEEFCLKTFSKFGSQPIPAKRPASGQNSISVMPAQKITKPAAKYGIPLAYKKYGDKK
# Experimental: as §3
# FGFR3 = target: T9, FGFR3 (Homo sapiens, UniProt P22607)
# T9 construct: purchased in-house DSF panel (SGC Frankfurt)
# T9 sequence (P22607 455-768): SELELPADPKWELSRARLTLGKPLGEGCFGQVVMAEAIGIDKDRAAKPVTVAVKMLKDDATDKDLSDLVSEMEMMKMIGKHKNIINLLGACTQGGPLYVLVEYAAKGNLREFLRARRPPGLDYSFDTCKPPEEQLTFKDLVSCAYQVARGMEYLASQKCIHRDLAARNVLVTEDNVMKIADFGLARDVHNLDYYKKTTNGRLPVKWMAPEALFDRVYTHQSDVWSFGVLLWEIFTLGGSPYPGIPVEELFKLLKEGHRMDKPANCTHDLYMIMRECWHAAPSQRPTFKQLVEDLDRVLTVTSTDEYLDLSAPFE
# Experimental: as §3
SMILES,ΔTm STK6 (STK6) [°C],ΔTm RPS6KA1 (RPS6KA1) [°C],ΔTm UKL3 (UKL3) [°C],ΔTm VRK1 (VRK1) [°C],ΔTm PKMYT1 (PKMYT1) [°C],ΔTm STK17A (STK17A) [°C],ΔTm at 10 µM (CDK16) [°C],ΔTm at 10 µM (CDK2) [°C],ΔTm TAF1 (TAF1) [°C],ΔTm NEK1 (NEK1) [°C],ΔTm FGFR3 (FGFR3) [°C]
"COC(=O)c1cc(Nc2ccnc(NCCOCCNC(=O)OC(C)(C)C)n2)[nH]n1 [21d, methyl 5-((2-((2-(2-((tert-butoxycarbonyl)amino)ethoxy)ethyl)amino)pyrimidin-4-yl)amino)-1H-pyrazole-3-carboxylate]",3.2,0.5,0.9,1.0,1.0,2.2,4.3,1.9,0.0,0.1,0.6
"COC(=O)c1cc(Nc2ccnc(NCc3ccc(NC(=O)OC(C)(C)C)cc3)n2)[nH]n1 [21i, methyl 5-((2-((4-((tert-butoxycarbonyl)amino)benzyl)amino)pyrimidin-4-yl)amino)-1H-pyrazole-3-carboxylate]",4.6,1.0,0.3,1.1,0.2,-0.1,6.5,3.3,0.2,0.4,1.2
"CC(C)OC(=O)c1cc(Nc2ccnc(NCc3ccc(NC(=O)OC(C)(C)C)cc3)n2)n[nH]1 [42d, isopropyl 3-((2-((4-((tert-butoxycarbonyl)amino)benzyl)amino)pyrimidin-4-yl)amino)-1H-pyrazole-5-carboxylate]",3.4,-0.3,2.3,0.5,-3.2,-0.4,8.4,3,0.5,0.2,
"CC(C)(C)OC(=O)Nc1ccc(CNc2nccc(Nc3cc(C(=O)OC(C)(C)C)[nH]n3)n2)cc1 [43d, tert-butyl 3-((2-((4-((tert-butoxycarbonyl)amino)benzyl)amino)pyrimidin-4-yl)amino)-1H-pyrazole-5-carboxylate]",4.0,0.2,3.3,0.9,-2.0,-0.6,9.2,3.2,0.0,0.1,
"N#CCc1ccc(Nc2nccc(Nc3cc(C4CC4)[nH]n3)n2)cc1 [compound 1, reference compound]",14.3,5.1,8.3,5.9,1.0,9.6,10.3,15.2,0.1,1.1,9.8
